From patent US20060276502A1, “Pharmaceutical use of 1-azabicyclo[2.2.2]octanes and a method of testing compounds for the ability of activating inactive wt p53” (priority 2003, published 2006)

Experiments:
[1] = molecular target: T1, wt p53 (Homo sapiens, UniProt P04637); experiment: p53 conformation by ELISA with Pab 1620, Pab 240 and DO 1 in melanoma cells in 3D-collagen; assay type: cell-based
T1 construct: endogenous in cells; host or cells: M21, M21L and AA human melanoma cells
Method: Data shown in FIG. 2D represents Pab 1620 and Pab 240 reactivity as percentage of D01 reactivity (total p53).
PRIMA-1 is a substance known from WO0224692 to be able to reactivate the apoptosis-inducing function of mutant p53 proteins. […] The p53 conformation was examined as described above. […] To this end, p53 conformation was also analyzed in AA human melanoma cells expressing αv β3 integrin and wt p53 before and after incubation within 3D collagen (FIG. 4B).

[2] = test system: M21 human melanoma cells; experiment: Apoptosis by FITC-Annexin-V staining / FACS of M21 melanoma cells; assay type: cell-based
Method: With reference to FIG. 1A, the maternal human melanoma cells M21, expressing integrin αvβ3, and a subpopulation, M21L, lacking integrin αvβ3 were cultured in a three-dimensional collagen gel (3D-collagen). At indicated times, apoptosis was detected by FITC-Annexin-V staining.
Apoptosis was analyzed in M21 cells grown under 2D culture conditions or within 3D-collagen with or without PRIMA-1 treatment for 16, 24, 36 and 48 h. […] This also verifies the results using dn p53 and p53-siRNA (FIG. 3) in an independent manner.

[3] = test system: p53; experiment: Western blot of p53 acetylation and p53 target proteins in M21 tumours grown in nude mice after a single PRIMA-1 injection; assay type: in vivo; details: 24 h and 36 h after single injection
Description: Thus, acetylation of p53-Lys382 is potentially involved in p53 activation by PRIMA-1, while Apaf-1 and PUMA are potential downstream mediators of PRIMA-1- and p53-induced melanoma cell apoptosis in vivo.

[4] = test system: Caspase 9; experiment: Western blot of Caspase 9 activation in M21 tumours grown in nude mice; assay type: in vivo; details: 24 h and 36 h after single injection
Description: Caspase 9 is therefore a potential downstream effector of PRIMA-1- and p53-induced apoptosis in melanoma cells in vivo.

[5] = test system: M21 melanoma cells (wt p53); experiment: M21 melanoma tumour growth s.c. in C57/BL nude mice; assay type: in vivo; details: 100 mg/kg for 6 d starting 6 d after inoculation, versus PBS control
Method: (§1) Tumour volumes were monitored for melanoma growth, as described in the preceding paragraph. Tumour volume over time was determined by the formula: width^2×length×0,52. […] In the Figure, ♦ represents M21; □ M21L; ▴ Lp53His175-0; and ★ Lp53His175-8. M21Lp53His175-0 and M21Lp53His175-8 formed large tumours similar in size to M21 tumours. However, M21L cells lacking integrin αvβ3 typically grew only minimal or developed no tumours.
(§2) To test if restoration of an active wt p53 conformation by PRIMA-1 could also induce melanoma cell apoptosis in vivo and thereby block melanoma tumour growth, M21 and C8161 melanoma cells (1,5×10^6) were injected s.c. into the back of 6-week-old C57/BL nude mice. The mice were treated with or without PRIMA-1 (100 mg/kg) for 6 d starting 6 d after tumour innoculation.

[6] = test system: C8161 melanoma cells (truncated, unfunctional p53); experiment: C8161 melanoma tumour growth s.c. in C57/BL nude mice; assay type: in vivo; details: 100 mg/kg for 6 d starting 6 d after inoculation
Method: as §1, §2

[7] = test system: caspase-8; experiment: Western blot for cleavage of caspase-8, control Jurkat cells; assay type: cell-based; details: cycloheximide-treated Jurkate cells

Compound: O=C1C2CCN(CC2)C1(CO)CO [PRIMA-1, 2,2-bis(hydroxymethyl)-1-azabicyclo[2.2.2]octan-3-one]
- p53 conformation (Pab 1620 / Pab 240 reactivity) ([1]; AA human melanoma cells (αvβ3, wt p53), 100 μM PRIMA-1, 5 d in 3D collagen): enforced p53 into an active conformation
- p53 conformation (Pab 1620 / Pab 240 reactivity) ([1]; M21 cells (αvβ3+), 100 μM PRIMA-1, 3D-collagen, 7 d): restore active p53 conformation from an unfolded inactive state
- apoptosis (Annexin V staining) ([2]; 100 μM PRIMA-1, 16, 24, 36 and 48 h, 3D collagen versus 2D culture): promoted apoptosis in M21 cells (αvβ3+) within 3D collagen to a much higher degree than in 2D culture
- apoptosis (Annexin-V staining) ([2]; 36 h in 3D collagen, 80 μM PRIMA-1): induces melanoma cell apoptosis
- Apaf-1 protein level [3]: induces
- PUMA protein level [3]: induces
- acetylation of p53-Lys382 [3]: induces
- activation of Caspase 9 [4]: activation of Caspase 9
- melanoma growth (mean tumour volume) [5]: significantly inhibited
- melanoma growth (mean tumour volume) [6]: no effect

Compound: C[C@@H]1C[C@@H]([C@H](O)CC2CC(=O)NC(=O)C2)C(=O)[C@@H](C)C1 [cycloheximide]
- caspase-8 cleavage [7]: displayed caspase-8 cleavage

Compound: Z-LEHD-FMK x TFA [reference compound]
- effect on PRIMA-1 induced apoptosis ([2]; 36 h in 3D-collagen, with 80 μM PRIMA-1): blocked
